Values after ≈ are worked out from the molar mass of the structure shown. Where a SMILES comes first, the peptide text is derived from it.
Legend:
[1] = system: E. coli ATCC 25922, Salmonella Enteritidis, S. aureus ATCC 29213; experiment: Broth microdilution, panel result (at least one / all strains), Example 2; type: cell-based; parameters: key to inhibitory activity (asterisk): *Indicates inhibitory activity; settings: for inhibitory activity (asterisk): Table 14, against at least one of E. coli ATCC 25922, Salmonella Enteritidis, S. aureus ATCC 29213; for spectrum of antimicrobial activity: panel of E. coli, Salmonella Enteritidis, S. aureus, up to 128 μg/mL
How it was run: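 CLSI broth microdilution adapted for cationic peptides, in MHB with a final inoculum of 2-8×10^5 cfu/mL in polypropylene plates. Peptides were serially diluted from 128 down to 0.5 μg/mL and incubated 20-24 h at 37° C. MIC is the lowest concentration with no visible growth.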

[2] = system: Salmonella enterica serovar Enteritidis (human clinical isolate); type: cell-based; settings: serovar Enteritidis (human clinical isolate)
How it was run: (§1)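 CLSI broth microdilution adapted for cationic peptides, in Mueller-Hinton broth, inoculum 2-8×10^5 cfu/mL. Peptides serially diluted from 128 to 0.5 μg/mL in polypropylene plates, incubated 20-24 h at 37° C. MIC = lowest concentration without visible growth.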

S. aureus ATCC 29213 = type: cell-based, Staphylococcus aureus; settings: ATCC 29213
How it was run: as §1

E. coli ATCC 25922 = type: cell-based, Escherichia coli; settings: ATCC 25922
How it was run: as §1

| MIC (ug/mL) S. Enteritidis [2] | MIC (ug/mL) S. aureus (S. aureus ATCC 29213) | MIC (ug/mL) E. coli (E. coli ATCC 25922) | SMILES | inhibitory activity (asterisk) [1] | spectrum of antimicrobial activity [1] |
| --- | --- | --- | --- | --- | --- |
| > 128 µg/mL | 64 to 128 µg/mL | 16 to 32 µg/mL | CC[C@H](C)[C@H](NC(=O)CNC(=O)[C@H](CO)NC(=O)[C@@H](NC(=O)[C@H](CC(C)C)NC(=O)CN)[C@@H](C)CC)C(=O)N[C@@H](CC(C)C)C(=O)NCC(=O)N[C@@H](C)C(=O)NCC(=O)N[C@@H](CCCCN)C(=O)N[C@@H](CCCCN)C(=O)N[C@H](C(=O)N[C@@H](CC(C)C)C(=O)N[C@@H](CS)C(=O)NCC(=O)N[C@@H](CC(C)C)C(=O)N[C@@H](CO)C(=O)NCC(=O)N[C@@H](CC(C)C)C(=O)N[C@@H](CS)C(=O)O)C(C)C [OdMa10] (H-GLISGILGAGKKVLCGLSGLC-OH; N-terminus and C-terminus assumed) | 1094.* GLISGILGAGKKVLCGLSGLC |  |
| 64 to 128 µg/mL | 64 µg/mL (≈ 32.5 µM) | 4 to 8 µg/mL | CC[C@H](C)[C@H](NC(=O)[C@H](CC(=O)O)NC(=O)[C@H](CC(C)C)NC(=O)[C@H](Cc1c[nH]c2ccccc12)NC(=O)CN)C(=O)N[C@@H](C)C(=O)N[C@@H](CCCCN)C(=O)N[C@@H](CCCCN)C(=O)N[C@H](C(=O)N[C@@H](C)C(=O)N[C@@H](CO)C(=O)N[C@H](C(=O)N[C@H](C(=O)N[C@@H](C)C(=O)NCC(=O)N[C@@H](CC(C)C)C(=O)NCC(=O)N[C@@H](CCCCN)C(=O)N[C@@H](CCCNC(=N)N)C(=O)O)C(C)C)C(C)C)C(C)C [LiVe2, GWLDIAKKVASVVAGLGKR] (H-GWLDIAKKVASVVAGLGKR-OH; N-terminus and C-terminus assumed) | 40.* GWLDIAKKVASVVAGLGKR |  |
| 32 µg/mL (≈ 15.9 µM) | 16 to 32 µg/mL | 4 to 8 µg/mL | CC[C@H](C)[C@H](NC(=O)CNC(=O)[C@H](C)NC(=O)[C@@H](NC(=O)[C@@H](NC(=O)[C@H](CO)NC(=O)[C@H](C)NC(=O)[C@@H](NC(=O)[C@H](CCCCN)NC(=O)[C@H](CCCCN)NC(=O)[C@H](C)NC(=O)[C@@H](NC(=O)[C@H](CC(=O)O)NC(=O)[C@H](CC(C)C)NC(=O)[C@H](Cc1c[nH]c2ccccc12)NC(=O)CN)[C@@H](C)CC)C(C)C)C(C)C)C(C)C)C(=O)N[C@H](C(=O)N[C@@H](CCCCN)C(=O)N[C@@H](CCCNC(=N)N)C(=O)O)C(C)C [LiVe1, GWLDIAKKVASVVAGIVKR] (H-GWLDIAKKVASVVAGIVKR-OH; N-terminus and C-terminus assumed) | 37.* GWLDIAKKVASVVAGIVKR |  |
| 32 to 64 µg/mL | 64 µg/mL (≈ 34.5 µM) | 8 to 16 µg/mL | CC[C@H](C)[C@H](NC(=O)CN)C(=O)N[C@@H](Cc1ccccc1)C(=O)N[C@@H](CO)C(=O)N[C@@H](CC(C)C)C(=O)N[C@H](C(=O)N[C@@H](CCCCN)C(=O)NCC(=O)N[C@@H](C)C(=O)N[C@@H](C)C(=O)N[C@@H](CCCCN)C(=O)N[C@H](C(=O)N[C@H](C(=O)N[C@@H](C)C(=O)N[C@@H](CCCCN)C(=O)NCC(=O)N[C@@H](CC(C)C)C(=O)NCC(=O)N[C@@H](CCCCN)C(=O)O)C(C)C)C(C)C)[C@@H](C)CC [RaOm3, GIFSLIKGAAKVVAKGLGK] (H-GIFSLIKGAAKVVAKGLGK-OH; N-terminus and C-terminus assumed) | 1099.* GIFSLIKGAAKVVAKGLGK |  |
| >128/>128/>128 ug/mL | >128/>128/>128 ug/mL | >128/>128/>128 ug/mL | C[C@H](NC(=O)CN)C(=O)N1CCC[C@H]1C(=O)N[C@@H](CCCCN)C(=O)NCC(=O)N[C@@H](CS)C(=O)N[C@@H](Cc1c[nH]c2ccccc12)C(=O)N[C@H](C(=O)N[C@@H](CCCCN)C(=O)N[C@@H](CO)C(=O)N[C@@H](Cc1ccc(O)cc1)C(=O)N1CCC[C@H]1C(=O)N1CCC[C@H]1C(=O)N[C@@H](CCCCN)C(=O)N1CCC[C@H]1C(=O)N[C@@H](CS)C(=O)N[C@@H](CO)C(=O)NCC(=O)N[C@@H](CCCCN)C(=O)N[C@@H](CCCNC(=N)N)C(N)=O)[C@@H](C)O [PeNi12] (H-GAPKGCWTKSYPPKPCSGKR-NH2; N-terminus and C-terminus assumed) |  | non-inhibitory against the panel of bacteria at the concentrations tested |
| 128 µg/mL (≈ 64.9 µM) | 16 to 32 µg/mL | 8 to 16 µg/mL | CC[C@H](C)[C@H](NC(=O)[C@H](CCCCN)NC(=O)[C@H](CCCCN)NC(=O)CNC(=O)[C@@H](NC(=O)CNC(=O)[C@H](CC(C)C)NC(=O)[C@@H](NC(=O)CNC(=O)[C@H](CO)NC(=O)[C@H](CC(C)C)NC(=O)[C@H](CC(C)C)NC(=O)CN)C(C)C)C(C)C)C(=O)N[C@H](C(=O)N[C@@H](CS)C(=O)NCC(=O)N[C@@H](CC(C)C)C(=O)N[C@@H](CO)C(=O)NCC(=O)N[C@@H](CC(C)C)C(=O)N[C@@H](CS)C(=O)O)C(C)C [OdMa6] (H-GLLSGVLGVGKKIVCGLSGLC-OH; N-terminus and C-terminus assumed) | 1092.* GLLSGVLGVGKKIVCGLSGLC |  |
| 32 µg/mL (≈ 22.4 µM) | > 128 µg/mL | 8 to 16 µg/mL | CC[C@H](C)[C@H](NC(=O)CN)C(=O)N[C@@H](CC(C)C)C(=O)N[C@@H](CO)C(=O)NCC(=O)N[C@@H](CC(C)C)C(=O)N[C@@H](CC(C)C)C(=O)NCC(=O)N[C@@H](C)C(=O)NCC(=O)N[C@@H](CCCCN)C(=O)N[C@@H](CCCCN)C(=O)N[C@H](C(=O)N[C@H](C(=O)N[C@@H](CS)C(=O)O)C(C)C)[C@@H](C)CC [OdMa4, GILSGLLGAGKKIVC] (H-GILSGLLGAGKKIVC-OH; N-terminus and C-terminus assumed) | 62.* GILSGLLGAGKKIVC | selective antimicrobial activity against the Gram-negative bacteria tested |
| > 128 µg/mL | > 128 µg/mL | 32 µg/mL (≈ 15.5 µM) | CC[C@H](C)[C@H](NC(=O)CN)C(=O)N[C@@H](Cc1ccccc1)C(=O)NCC(=O)NCC(=O)N[C@@H](CC(C)C)C(=O)N[C@@H](CC(C)C)C(=O)N[C@@H](CCCCN)C(=O)N[C@@H](CCC(=O)O)C(=O)NCC(=O)N[C@@H](CCCCN)C(=O)N[C@@H](CCCCN)C(=O)N[C@H](C(=O)N[C@@H](C)C(=O)N[C@@H](CS)C(=O)NCC(=O)N[C@@H](CC(C)C)C(=O)N[C@@H](CO)C(=O)NCC(=O)N[C@@H](CC(C)C)C(=O)N[C@@H](CS)C(=O)O)[C@@H](C)CC [OdTo3] (H-GIFGGLLKEGKKIACGLSGLC-OH; N-terminus and C-terminus assumed) | 141.* GIFGGLLKEGKKIACGLSGLC |  |

| SMILES | MIC (ug/mL) S. Enteritidis [2] | MIC (ug/mL) S. aureus (S. aureus ATCC 29213) | MIC (ug/mL) E. coli (E. coli ATCC 25922) | inhibitory activity (asterisk) [1] | spectrum of antimicrobial activity [1] |
| --- | --- | --- | --- | --- | --- |
| CC[C@H](C)[C@H](N)C(=O)N[C@@H](CO)C(=O)N[C@H](C(=O)N[C@@H](CCCCN)C(=O)N[C@@H](CCC(=O)O)C(=O)N[C@@H](C)C(=O)N[C@@H](CC(C)C)C(=O)N[C@@H](CCC(=O)O)C(=O)N[C@@H](Cc1c[nH]cn1)C(=O)N[C@@H](CO)C(=O)N[C@@H](Cc1ccccc1)C(=O)N[C@@H](Cc1ccccc1)C(=O)N[C@@H](Cc1c[nH]cn1)C(=O)N[C@H](C(=O)N[C@H](C(=O)N1CCC[C@H]1C(=O)N[C@@H](CCCNC(=N)N)C(=O)N[C@@H](CCCCN)C(=O)N[C@@H](Cc1c[nH]c2ccccc12)C(=O)N[C@@H](CS)C(=O)N[C@@H](CCCCN)C(=O)N[C@@H](CCCCN)C(=O)N[C@@H](Cc1c[nH]cn1)C(=O)O)C(C)C)[C@@H](C)O)[C@@H](C)CC [PoSn1] (H-ISIKEALEHSFFHTVPRKWCKKH-OH) | 64/>128/>128 ug/mL | 64/>128/>128 ug/mL | 64/>128/>128 ug/mL | 936.* ISIKEALEHSFFHTVPRKWCKKH |  |
